{"source": "patent US20240125768A1", "about": "“METHODS FOR MODULATING A SRC-1 CONDENSATE” (ETERN BIOPHARMA (SHANGHAI) CO., LTD., priority 2021, published 2024)", "key": {"[1]": {"target": "T1, SRC-1 condensates (Homo sapiens, UniProt Q15788)", "T1 construct": "expressed in transfected cells; host or cells: SF268", "T1 sequence (Q15788 whole entry)": "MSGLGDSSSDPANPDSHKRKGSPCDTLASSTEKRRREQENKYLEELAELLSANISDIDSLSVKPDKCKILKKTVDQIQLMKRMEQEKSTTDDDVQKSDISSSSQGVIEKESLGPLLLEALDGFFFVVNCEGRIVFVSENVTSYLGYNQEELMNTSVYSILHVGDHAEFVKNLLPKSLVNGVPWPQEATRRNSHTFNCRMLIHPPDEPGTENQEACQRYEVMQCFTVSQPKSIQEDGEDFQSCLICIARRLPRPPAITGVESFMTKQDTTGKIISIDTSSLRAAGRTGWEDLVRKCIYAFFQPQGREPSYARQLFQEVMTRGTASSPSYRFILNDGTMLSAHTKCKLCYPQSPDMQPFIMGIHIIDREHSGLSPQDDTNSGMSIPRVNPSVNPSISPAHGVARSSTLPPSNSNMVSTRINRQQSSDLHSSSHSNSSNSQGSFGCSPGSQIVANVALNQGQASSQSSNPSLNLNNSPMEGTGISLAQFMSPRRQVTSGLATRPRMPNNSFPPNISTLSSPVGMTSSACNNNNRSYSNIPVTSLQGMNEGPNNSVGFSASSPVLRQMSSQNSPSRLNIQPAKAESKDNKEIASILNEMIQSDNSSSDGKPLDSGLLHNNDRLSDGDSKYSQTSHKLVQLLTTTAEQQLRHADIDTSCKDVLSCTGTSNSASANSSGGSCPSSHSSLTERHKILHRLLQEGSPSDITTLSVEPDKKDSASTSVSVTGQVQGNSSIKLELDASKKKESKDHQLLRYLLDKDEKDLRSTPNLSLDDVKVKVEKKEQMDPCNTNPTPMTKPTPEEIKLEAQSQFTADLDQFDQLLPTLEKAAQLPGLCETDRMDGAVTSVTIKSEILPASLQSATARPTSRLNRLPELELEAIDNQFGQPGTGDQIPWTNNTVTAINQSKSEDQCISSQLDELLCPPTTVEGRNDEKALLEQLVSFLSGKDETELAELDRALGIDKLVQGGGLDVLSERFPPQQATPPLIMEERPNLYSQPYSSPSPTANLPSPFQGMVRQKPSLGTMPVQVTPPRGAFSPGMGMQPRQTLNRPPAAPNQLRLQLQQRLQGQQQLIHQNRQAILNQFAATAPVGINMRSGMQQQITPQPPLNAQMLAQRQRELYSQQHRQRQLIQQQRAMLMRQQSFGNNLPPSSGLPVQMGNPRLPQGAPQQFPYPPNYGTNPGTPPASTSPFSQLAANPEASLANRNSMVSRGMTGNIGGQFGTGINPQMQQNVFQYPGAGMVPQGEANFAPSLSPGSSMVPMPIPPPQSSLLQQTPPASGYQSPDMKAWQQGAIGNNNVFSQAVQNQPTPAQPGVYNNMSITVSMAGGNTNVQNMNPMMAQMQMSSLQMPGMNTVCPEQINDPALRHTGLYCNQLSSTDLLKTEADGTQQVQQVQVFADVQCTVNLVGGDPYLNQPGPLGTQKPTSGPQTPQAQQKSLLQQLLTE", "test": "Live cell imaging of SRC-1 condensates", "format": "cell-based", "protocol": "Cells were grown on 24-well glass bottom plate (Cellvis, P24-1.5H-N) and images were taken with the Leica TCS SP8 confocal microscopy system using a 100× oil objective (NA=1.4). Cells were imaged on a heated stage(37° C.) and supplemented with warmed (37° C.) humidified air.\nFor compounds treatment assay, SF268 cells were co-transfected with YAP5SA, TEAD4-mTagBFP2 and mNeoGreen-SRC1. YAP variant YAP5SA which is insensitive to the upstream Hippo pathway, sequestered YAP in nucleus. To circumvent the limitations brought by red fluorescent proteins, TEAD condensates which have been reported to depend on YAP, were used to characterize YAP/TEAD transcriptional condensates. Six hours after transfection, SF268 cells were seeded on 24-well glass bottom plate (Cellvis, P24-1.5H-N) and compounds were added two hours later. Cells were imaged every 30 mins after EVG or other compounds were added.\nCells were grown on 24-well glass bottom plate (Cellvis, P24-1.5H-N) and images were taken with the Leica TCS SP8 confocal microscopy system using a 100× oil objective (NA=1.4). Cells were imaged on a heated stage (37° C.) and supplemented with warmed (37° C.) humidified air. […]\nData was analyzed by images collected from 100 representative fields in each group. The spots quantification was performed based on the number and intensity of the spots through green (mNeoGreen-SRC1) and blue (TEAD4-mTagBFP2) channel. […]"}, "[2]": {"system": "YAP", "test": "Anti-YAP immunofluorescence staining in A549 cells (YAP nuclear translocation)", "format": "cell-based", "conditions": "anti-YAP antibody and DAPI", "description": "FIG. 7H illustrates A549 cells treated with DMSO, EVG or PC(Positive compound) were stained with anti-YAP antibody and DAPI. […] Scale bar represents 40 μm."}, "[3]": {"system": "YAP", "test": "ChIP-qPCR of YAP association on YAP target regions", "format": "cell-based, human", "conditions": "DMSO or elvitegravir", "protocol": "FIG. 7J illustrates the association of YAP on YAP targets regions (#1:ANKRD1enhancer, #2:PAWRpromoter, #3:NPPBpromoter, #4:CTGF promoter) were analyzed by ChIP-qPCR from cells treated with DMSO or elvitegravir. Data are representative of 3 independent experiments. Error bars indicate the s.e.m. of triplicate qPCR data.\nFIG. 7K illustrates the association of YAP on YAP target regions were analyzed by ChIP-qPCR in SF268 cells treated with EVG or DMSO. Error bars show mean±s.e.m. (n=3).\nBriefly, cells were crosslinked with 1% formaldehyde (Sigma) in culture medium for 10 min at room temperature, and chromatin from lysed nuclei was sheared to 200-1000 bp fragments using a Bioruptor® Pico (Diagenode SA). ˜50 μg of sheared chromatin and ˜2 μg of antibody were mixed. […] Quantitative real-time PCR was carried out with QuantStudio™ 6 Flex Real-Time PCR Systems (Thermofisher Scientific). The amount of immunoprecipitated DNA in each sample was determined as the fraction of the input, and normalized to the IgG control. […]\nChromatin immunoprecipitation antibodies are listed in Supplementary […] Supplementary Methods. […] Quantitative real-time PCR was carried out with QuantStudio™ 6 Flex Real-Time PCR Systems (Thermofisher Scientific). The amount of immunoprecipitated DNA in each sample was determined as the fraction of the input, and normalized to the IgG control."}, "[4]": {"system": "H3K27ac", "test": "Immunofluorescence of H3K27ac at TEAD puncta in H1299 cells", "format": "cell-based", "conditions": "H1299 cells co-expressing YAP5SA, TEAD4-mTagBFP, mNeoGreen-SRC1; 20 μM", "protocol": "FIG. 7 M illustrates immunofluorescence staining with anti-H3K27ac (red,top) and anti-RNA pol II-S5P (red, bottom) in H1299 cells co-expressing YAP5SA, TEAD4-mTagBFP(blue) and mNeoGreen-SRC1(green) treated with 20 μM EVG. EVG impaired the SRC-1 LLPS. Transcription active markerH3K27ac and active RNA polymerase II phosphorylated at Ser 5 of CTD were not enriched in SRC-1 condensates. Scale bar, 5 μm.\nCells were fixed with 4% PFA for 15 minutes at room temperature. Cells were subsequently washed with PBS (3×3 min) and blocked in PBS/BSA (3%)/Triton X-100 (0.3%) at room temperature for 60 minutes. Cells were rinsed in PBS and incubated with anti-H3K27ac (ab4729, Abcam, 1:100), anti-RNA Pol II-S5P antibody (#04-1572, Millipore, 1:200) in PBS/BSA (1%) overnight at 4° C. Cells were washed with PBST (1×PBS+Tween20 0.2%, 3×5 min) and incubated with the secondary antibody for 1 hours at room temperature. After washing with PBST(3×5 min), cells were stained with DAPI."}, "[5]": {"system": "SRC-1's binding with YAP and TEAD", "test": "FLAG pulldown assay with recombinant proteins", "conditions": "in vitro pulldown, concentrations up to 400 μM", "protocol": "FIG. 7N illustrates purified Flag-SRC-1 protein was mixed with YAP and/or TEAD4 in the presence of increasing concentrations of EVG and was subjected to three independent pull-downs using anti-flag beads.\nThree independent pull down assays were performed to detect the direct binding between SRC1 and YAP/TEAD4. Purified FLAG-SRC1 truncated proteins were incubated with YAP, TEAD4 and YAP plus TEAD4 respectively, and further subjected to pull down assays by ANTI-FLAG® M2 Affinity Gel (A2220, Sigma-Aldrich). Elvitegravir was co-incubated with the mixtures at increasing concentrations (0, 50, 200, 400 μM) as indicated. Complexes were washed in PBS buffer and proteins were eluted using 2×SDS loading buffer."}}, "note": "Entries after “also recorded” stand apart in the source; their conditions may differ.", "data": [{"molecule": "COc1cc2c(cc1Cc1cccc(Cl)c1F)c(=O)c(C(=O)O)cn2[C@H](CO)C(C)C", "note": "[EVG, 6-[(3-chloro-2-fluorophenyl)methyl]-1-[(2S)-1-hydroxy-3-methylbutan-2-yl]-7-methoxy-4-oxoquinoline-3-carboxylic acid]", "values": [{"measurement": "SRC-1 condensates / SRC1 phase separation (LLPS)", "setting": "[1]; H1299 cells co-transfected with YAP5SA, TEAD4-mTagBFP, mNeoGreen-SRC1, 20 μM", "result": "impaired; also recorded: selectively disrupted"}, {"measurement": "nuclear SRC-1 puncta formation", "setting": "[1]; H1299 cells expressing either mNeoGreen or mScarlet labeled SRC-1, time course", "result": "impaired the LLPS of SRC-1 in time-dependent manner; also recorded: suppressed"}, {"measurement": "YAP nuclear translocation", "setting": "[2]", "result": "remained in nucleus; also recorded: unaffected"}, {"measurement": "access of YAP to target genes (association of YAP on YAP target regions)", "setting": "[3]", "result": "excluding the possibility that EVG may block the access of YAP to target genes"}, {"measurement": "enrichment of H3K27ac at TEAD puncta", "setting": "[4]", "result": "inhibited the enrichment"}, {"measurement": "SRC-1's binding with YAP and TEAD", "setting": "[5]", "result": "did not affect"}]}]}
